In patent publication US5220018A, “Cholecystokinin antagonists” (Merck & Co., Inc., priority 1992, dated 1993):
Read-outs that look alike come from different tables or passages of the source.

Key:
CCK Receptor (Pancreas) = molecular target: T1, CCK Receptor (Pancreas) (Rattus norvegicus, UniProt P30551); assay: biochemical; format: binding, Male Sprague-Dawley rats
T1 construct: The whole pancreas was dissected free of fat tissue and was homogenized; from tissue; host or cells: rat whole pancreas, homogenate membranes
T1 sequence (P30551 1-444): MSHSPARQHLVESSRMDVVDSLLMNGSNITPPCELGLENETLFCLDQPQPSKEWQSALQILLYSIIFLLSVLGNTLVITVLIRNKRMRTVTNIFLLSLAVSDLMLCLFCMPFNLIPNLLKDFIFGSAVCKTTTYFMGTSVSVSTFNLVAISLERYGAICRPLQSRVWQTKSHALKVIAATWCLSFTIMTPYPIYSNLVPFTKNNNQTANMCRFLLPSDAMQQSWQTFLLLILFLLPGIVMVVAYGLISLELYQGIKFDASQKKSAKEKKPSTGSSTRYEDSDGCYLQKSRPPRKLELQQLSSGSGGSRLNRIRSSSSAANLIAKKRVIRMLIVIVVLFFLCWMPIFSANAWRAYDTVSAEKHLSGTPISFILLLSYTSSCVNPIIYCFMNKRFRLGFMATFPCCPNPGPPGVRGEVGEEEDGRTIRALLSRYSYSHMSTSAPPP
Protocol: 1. CCK Receptor Binding (Pancreas)
CCK-8 sulphated was radiolabelled with ^125 I-Bolton Hunter reagent (2000 Ci/mmole). Receptor binding was performed according to Chang and Lotti (Proc. Natl. Acad. Sci. 83, 4923-4926, 1986) with minor modifications.
Male Sprague-Dawley rats (150-200 g) were sacrificed by decapitation. The whole pancreas was dissected free of fat tissue and was homogenized in 25 volumes of ice-cold 10 mM Hepes buffer with 0.1% soya bean trypsin inhibitor (pH 7.4 at 25° C.) with a Kinematica Polytron. The homogenates were centrifuged at 47,800 g for 10 min. Pellets were resuspended in 10 volumes of binding assay buffer (20 mM Hepes, 1 mM EGTA, 5 mM MgCl2, 150 mM NaCl, bacitracin 0.25 mg/ml, soya bean trypsin inhibitor 0.1 mg/ml, and bovine serum albumin 2 mg/ml, pH 6.5 at 25° C.) using a teflon homogenizer, 15 strokes at 500 rpm. The homogenate was further diluted in binding assay buffer to give a final concentration of 0.5 mg original wet weight/1 ml buffer. […] All assays were run in duplicate. The reaction mixtures were incubated at 25° C. for 2 hours and the reaction terminated by rapid filtration (Brandell 24 well cell harvester) over Whatman GF/C filters, washing 3×4 mls with ice-cold 100 mM NaCl. The radioactivity on the filters was counted with a LKB gamma counter.
(§1) Drug displacement studies were performed with at least 10 concentrations of compounds of formula 1 and the IC50 values were determined by regression analysis.

CCK Receptor (Brain) = molecular target: T2, CCK Receptor (Brain) (Cavia porcellus, UniProt H0VZC5); assay: CCK Receptor Binding (Brain), inhibition of 125I-CCK-8 binding; set-up: species or system Male Hartley guinea pigs
T2 construct: the cortex was removed and homogenized in 25 mL ice-cold 0.32M sucrose; from tissue; host or cells: guinea pig cerebral cortex, P2 membrane pellet
T2 sequence (H0VZC5 1-426): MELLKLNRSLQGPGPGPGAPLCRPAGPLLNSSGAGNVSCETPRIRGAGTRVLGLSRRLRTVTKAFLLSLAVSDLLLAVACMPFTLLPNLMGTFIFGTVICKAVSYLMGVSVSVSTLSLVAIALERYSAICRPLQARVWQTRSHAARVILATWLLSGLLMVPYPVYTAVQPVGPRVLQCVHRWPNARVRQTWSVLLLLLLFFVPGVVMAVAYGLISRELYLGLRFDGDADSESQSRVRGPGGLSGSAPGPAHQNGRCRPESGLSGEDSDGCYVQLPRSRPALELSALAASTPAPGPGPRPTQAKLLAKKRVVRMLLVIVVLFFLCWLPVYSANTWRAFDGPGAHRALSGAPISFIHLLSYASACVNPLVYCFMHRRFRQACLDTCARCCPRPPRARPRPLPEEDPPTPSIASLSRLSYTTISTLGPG
Protocol: 2. CCK Receptor Binding (Brain)
CCK-8 sulphated was radiolabelled and the binding was performed according to the description for the pancreas method with minor modifications.
Male Hartley guinea pigs (300-500 g) were sacrificed by decapitation and the cortex was removed and homogenized in 25 mL ice-cold 0.32M sucrose. The homogenates were centrifuged at 1000 g for 10 minutes and the resulting supernatant was recentrifuged at 20,000 g for 20 minutes. […] All assays were run in duplicate. The reaction mixtures were incubated at 25° C. for 2 hours and then the reaction was terminated on Whatman GF/C filters by rapid filtration (Brandell 24 well cell Harvester) with 3×5 ml washes of cold 100 mM NaCl. The radioactivity on the filters was then counted with a LKB gamma counter.
as §1

[1] = rat pancreas membranes, 125I-CCK-8 50 pM, 25° C., 2 hours, read-out: IC50, 125I-CCK Pancreas
[2] = guinea pig cortex membranes, 125I-CCK-8 50 pM, 25° C., 2 hours, read-out: IC50, 125I-CCK Brain

SMILES | IC50 (CCK Receptor (Pancreas); [1]) | IC50 (CCK Receptor (Brain); [2]) | IC50 (CCK Receptor (Pancreas)) | IC50 (CCK Receptor (Brain))
CC(C)CN1C(=O)C(NC(=O)Nc2cccc(-c3nnn[nH]3)c2)N=C(c2ccccc2F)c2ccccc21 (racemic) [Example 21, N-[3(R,S)-2,3-Dihydro-5-(2-fluorophenyl)-1-(2-methylpropyl)-2-oxo-1H-1,4-benzodiazepin-3-yl]-N'-{[3-(tetrazol-5-yl)phenyl]urea}] | 150 nM | 1.4 nM |  | 
CCN1C(=O)C(NC(=O)Nc2cccc(-c3nnn[nH]3)c2)N=C(c2ccccc2)c2ccccc21 (centres unmarked) [Example 3, N-{1,3-Dihydro-1-ethyl-2-oxo-5-phenyl-1H-1,4-benzodiazepin-3-yl}-N'-{[3-(1H-tetrazol-5-yl)phenyl]urea}] |  | 1.6 nM | 29 nM | 
CC(C)N1C(=O)C(NC(=O)Nc2cccc(-c3nnn[nH]3)c2)N=C(c2ccccc2)c2ccccc21 (centres unmarked) [Example 4, N-{1,3-Dihydro-1-[2-propyl]-2-oxo-5-phenyl-1H-1,4-benzodiazepin-3-yl}-N'-{[3-(1H-tetrazol-5-yl)phenyl]urea}] | 200 nM | 4.1 nM |  | 
CN1C(=O)[C@H](NC(=O)Nc2ccc(Cl)nc2)N=C(c2ccccc2)c2ccccc21 [Example 5, N-{1,3-Dihydro-1-methyl-2-oxo-5-phenyl-1H-1,4-benzodiazepin-3-yl}-N'-{[5-(2-chloro)pyridyl]urea}] | > 3000 nM |  |  | 46 nM
COc1ccc(NC(=O)N[C@@H]2N=C(c3ccccc3)c3ccccc3N(C)C2=O)cn1 [Example 6, N-{1,3-Dihydro-1-methyl-2-oxo-5-phenyl-1H-1,4-benzodiazepin-3-yl}-N'-{[5-(2-methoxy)pyridyl]urea}] | 2000 nM | 48 nM |  | 
CN1C(=O)[C@H](NC(=O)Nc2cccc(C#N)c2)N=C(c2ccccc2)c2ccccc21 [Example 7, N-{1,3-Dihydro-1-methyl-2-oxo-5-phenyl-1H-1,4-benzodiazepin-3-yl}-N'-{[3-(cyano)phenyl]urea}] | 3100 nM | 27 nM |  | 
CC(=O)c1cccc(NC(=O)N[C@@H]2N=C(c3ccccc3)c3ccccc3N(C)C2=O)c1 [Example 8, N-{1,3-Dihydro-1-methyl-2-oxo-5-phenyl-1H-1,4-benzodiazepin-3-yl}-N'-{[3-(acetyl)phenyl]urea}] | 1200 nM | 3.6 nM |  | 
CN1C(=O)[C@H](NC(=O)Nc2cccc(N)c2)N=C(c2ccccc2)c2ccccc21 [Example 9, N-{1,3-Dihydro-1-methyl-2-oxo-5-phenyl-1H-1,4-benzodiazepin-3-yl}-N'-{[3-(amino)phenyl]urea}] | > 3000 nM | 33 nM |  | 
CN1C(=O)[C@H](NC(=O)Nc2cccc(C(N)=O)c2)N=C(c2ccccc2)c2ccccc21 [Example 10, N-{1,3-Dihydro-1-methyl-2-oxo-5-phenyl-1H-1,4-benzodiazepin-3-yl}-N'-{[3-(aminocarbonyl)phenyl]urea}] | 1360 nM | 28 nM |  | 
COP(=O)(Nc1cccc(NC(=O)N[C@@H]2N=C(c3ccccc3)c3ccccc3N(C)C2=O)c1)OC [Example 11, N-{1,3-Dihydro-1-methyl-2-oxo-5-phenyl-1H-1,4-benzodiazepin-3-yl}-N'-{[3-(dimethylphosphoramido)phenyl]urea}] | 300 nM | 100 nM |  | 
CN1C(=O)[C@H](NC(=O)Nc2cccc(NS(N)(=O)=O)c2)N=C(c2ccccc2)c2ccccc21 [Example 12, N-{1,3-Dihydro-1-methyl-2-oxo-5-phenyl-1H-1,4-benzodiazepin-3-yl}-N'-{[3-(aminosulfonamido)phenyl]urea}] | 530 nM | 32 nM |  | 
CN1C(=O)[C@H](NC(=O)Nc2ccc3[nH]nnc3c2)N=C(c2ccccc2)c2ccccc21 [Example 13] |  | 19 nM | 1500 nM | 
CN1C(=O)[C@H](NC(=O)Nc2cccc(S(N)(=O)=O)c2)N=C(c2ccccc2)c2ccccc21 [Example 14, N-{1,3-Dihydro-1-methyl-2-oxo-5-phenyl-1H-1,4-benzodiazepin-3-yl}-N'-{[3-(aminosulfonyl)phenyl]urea}] | 4400 nM | 74 nM |  | 
CN1C(=O)[C@H](NC(=O)Nc2cccc(B(O)O)c2)N=C(c2ccccc2)c2ccccc21 [Example 15, N-{1,3-Dihydro-1-methyl-2-oxo-5-phenyl-1H-1,4-benzodiazepin-3-yl}-N'-{[3-phenylboronyl]urea}] | 420 nM | 9.6 nM |  | 
CC(=O)NS(=O)(=O)c1cccc(NC(=O)N[C@@H]2N=C(c3ccccc3)c3ccccc3N(C)C2=O)c1 [Example 16, N-{1,3-Dihydro-1-methyl-2-oxo-5-phenyl-1H-1,4-benzodiazepin-3-yl}-N'-{[3-(acetylaminosulfonyl)phenyl]urea}] | > 3000 nM | 3.9 nM |  | 
CN1C(=O)[C@H](NC(=O)Nc2cccc(Cc3nnn[nH]3)c2)N=C(c2ccccc2)c2ccccc21 [Example 17, N-{1,3-Dihydro-1-methyl-2-oxo-5-phenyl-1H-1,4-benzodiazepin-3-yl}-N'-{[3-((1H-tetrazol-5-yl)methyl)phenyl]urea}] | 1800 nM | 4.8 nM |  | 
CCCN1C(=O)[C@H](NC(=O)Nc2cccc(-c3nnn[nH]3)c2)N=C(c2ccccc2)c2ccccc21 [Example 18, N-{1,3-Dihydro-1-n-propyl-2-oxo-5-phenyl-1H-1,4-benzodiazepin-3-yl}-N'-{[3-(1H-tetrazol-5-yl)phenyl]urea}] | 1100 nM | 0.067 nM |  | 
CC[C@H](C)CN1C(=O)[C@H](NC(=O)Nc2cccc(-c3nnn[nH]3)c2)N=C(c2ccccc2)c2ccccc21 [Example 19, N-{1,3-Dihydro-1-[2-(S)-methylbutyl]-2-oxo-5-phenyl-1H-1,4-benzodiazepin-3-yl}-N'-{[3-(1H-tetrazol-5-yl)phenyl]urea}] | 500 nM | 0.25 nM |  | 
O=C(Nc1cccc(-c2nnn[nH]2)c1)N[C@@H]1N=C(c2ccccc2)c2ccccc2N(CC2CC2)C1=O [Example 20, N-{1,3-Dihydro-1-cyclopropylmethyl-2-oxo-5-phenyl-1H-1,4-benzodiazepin-3-yl}-N'-{[3-(1H-tetrazol-5-yl)phenyl]urea}] | 870000 nM | 0.4 nM |  | 
CC(=O)NC(=O)c1cccc(NC(=O)N[C@@H]2N=C(c3ccccc3)c3ccccc3N(C)C2=O)c1 [Example 22, N-{1,3-Dihydro-1-methyl-2-oxo-5-phenyl-1H-1,4-benzodiazepin-3-yl}-N'-{[3-(N-acetylcarboxamido)phenyl]urea}] | 3800 nM | 55 nM |  | 
CN1C(=O)[C@H](NC(=O)Nc2cccc(C(=O)NS(C)(=O)=O)c2)N=C(c2ccccc2)c2ccccc21 [Example 23, N-{1,3-Dihydro-1-methyl-2-oxo-5-phenyl-1H-1,4-benzodiazepin-3-yl}-N'-{[3-(N-(methanesulfonyl)carboxamido)phenyl]urea}] |  | 12 nM | 1500 nM | 
CC(C)S(=O)(=O)NC(=O)c1cccc(NC(=O)N[C@@H]2N=C(c3ccccc3)c3ccccc3N(C)C2=O)c1 [Example 24, N-{1,3-Dihydro-1-methyl-2-oxo-5-phenyl-1H-1,4-benzodiazepin-3-yl}-N'-{[3-(N-(2-propylsulfonyl)carboxamido)phenyl]urea}] | 2400 nM | 7.6 nM |  | 
